Data: publication PMC10165273, “Itch receptor MRGPRX4 interacts with the receptor activity–modifying proteins” (The Journal of Biological Chemistry, 2023)
Where “and” joins values, the source holds several entries; their conditions need not be identical. Identical values can stand only once. Like-named read-outs stand apart in the source and are kept apart here.

Target: T1, MRGPRX4 + RAMP2 (Homo sapiens, UniProt Q96LA9)
T1 construct: expressed in transfected cells; host or cells: HEK293T
Experiment: IP1 accumulation, MRGPRX4 coexpressed with RAMP2
Assay type: cell-based
Design: key to response to agonist, X4:ramp2.I:2: % IP1: mock-transfected unstimulated = 0%, fully stimulated MRGPRX4 = 100%; key to IP1 Basal / response to agonist, X4:ramp2.I:0.25 / response to agonist, X4:ramp2.I:0.5 / response to agonist, X4:ramp2.I:1: % IP1; unstimulated mock = 0%, fully stimulated MRGPRX4 = 100%
Details: for activation at 100 µM / activation at 20 µM / activation at 4 µM / activation at 0.8 µM / activation at […] / activation at 0.032 µM: 2 h
Procedure: HEK293T cells were transfected with 1 pg/cell of MRGPRX4 DNA, and the amount of DNA was kept constant at 2 pg/cell with pcDNA3.1(+) empty vector, unless otherwise specified. Twenty four hours after transfection, IP1 assay was performed as previously described ([51]). When applicable, cells were treated with 1 μM YM254890 (YM) or different concentrations of U73122 for 1 h prior to addition of agonist or buffer. After incubation for 2 h, HTRF reagents and IP1 calibration standards were added and incubated for 2 h in the dark at room temperature. Time-resolved fluorescence signals were read on the BioTek Synergy NEO-TRF Hybrid multi-mode reader (BioTek Instruments). All data were carried out in three independent experiments with three technical replicate each.
For RAMP DNA titration assay, HEK293T cells were cotransfected with a constant amount of 1 pg/cell of FLAG-MRGPRX4-GFP10-1D4 to which a serial dilution of 1, 0.75, 0.5, 0.25, or 0 pg/cell of each HA-RAMP-OLLAS was added. For a homogenous transfection of MRGPRX4, a master mix of MRGPRX4 DNA was made prior to addition of the RAMP DNA. […]
Data reduction, standard calibration, and transformation of HTRF data were performed as previously described ([51]). Normalized IP1 values were calculated relative to the unstimulated mock-transfected cells (set to 0%) and fully stimulated MRGPRX4 (alone if applicable) (set to 100%).

[1] = MRGPRX4 + RAMP2 0.25 pg (Fig. S3), normalized per agonist
[2] = MRGPRX4 + RAMP2 0.5 pg (Fig. S3), normalized per agonist
[3] = MRGPRX4 + RAMP2 1 pg (Fig. S3), normalized per agonist
[4] = MRGPRX4 + RAMP2 2 pg (Fig. S3), normalized per agonist
[5] = Tet-On MRGPRX4:RAMP2 Ratio 1:0.5 (Fig. S5E)
[6] = Tet-On MRGPRX4:RAMP2 Ratio 1:0.75 (Fig. S5E)

T1 sequence (Q96LA9 whole entry): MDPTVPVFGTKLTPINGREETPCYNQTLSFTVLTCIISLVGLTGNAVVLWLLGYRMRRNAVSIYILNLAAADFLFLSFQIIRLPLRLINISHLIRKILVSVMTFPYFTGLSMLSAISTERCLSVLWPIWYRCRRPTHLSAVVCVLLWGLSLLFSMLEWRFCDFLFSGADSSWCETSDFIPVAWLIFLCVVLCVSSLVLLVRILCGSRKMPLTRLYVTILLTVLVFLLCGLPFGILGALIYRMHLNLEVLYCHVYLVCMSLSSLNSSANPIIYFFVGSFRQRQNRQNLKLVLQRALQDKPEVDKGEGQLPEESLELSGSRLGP

CC(C)[C@H]1CC[C@H](C(=O)N[C@H](Cc2ccccc2)C(=O)O)CC1 [Nateglinide]
activation at 100 µM (log [nateglinide] (M) -4, MRGPRX4+RAMP2 0.75pg 1:0.75, Supplementary Figure 5e, read-out: IP1 accumulation (normalized)): 67.4%
activation at 100 µM (log [nateglinide] (M) -4, MRGPRX4+RAMP2 1pg 1:1, Supplementary Figure 5e, 5g, read-out: IP1 accumulation (normalized)): 56.4%
activation at 20 µM (log [nateglinide] (M) -4.69897, MRGPRX4+RAMP2 0.5pg 1:0.5, Supplementary Figure 5e, read-out: IP1 accumulation (normalized)): 67.3%
activation at 20 µM (log [nateglinide] (M) -4.69897, MRGPRX4+RAMP2 0.75pg 1:0.75, Supplementary Figure 5e, read-out: IP1 accumulation (normalized)): 50.8%
activation at 20 µM (log [nateglinide] (M) -4.69897, MRGPRX4+RAMP2 1pg 1:1, Supplementary Figure 5e, 5g, read-out: IP1 accumulation (normalized)): 31.2%
activation at 4 µM (log [nateglinide] (M) -5.39794, MRGPRX4+RAMP2 0.5pg 1:0.5, Supplementary Figure 5e, read-out: IP1 accumulation (normalized)): 27.4%
activation at 4 µM (log [nateglinide] (M) -5.39794, MRGPRX4+RAMP2 0.75pg 1:0.75, Supplementary Figure 5e, read-out: IP1 accumulation (normalized)): 22.7%
activation at 4 µM (log [nateglinide] (M) -5.39794, MRGPRX4+RAMP2 1pg 1:1, Supplementary Figure 5e, 5g, read-out: IP1 accumulation (normalized)): 15%
activation at 0.8 µM (log [nateglinide] (M) -6.09691, MRGPRX4+RAMP2 0.5pg 1:0.5, Supplementary Figure 5e, read-out: IP1 accumulation (normalized)): 14.1%
activation at 0.8 µM (log [nateglinide] (M) -6.09691, MRGPRX4+RAMP2 0.75pg 1:0.75, Supplementary Figure 5e, read-out: IP1 accumulation (normalized)): 9.77%
activation at 0.8 µM (log [nateglinide] (M) -6.09691, MRGPRX4+RAMP2 1pg 1:1, Supplementary Figure 5e, 5g, read-out: IP1 accumulation (normalized)): 5.12%
activation at […] (log [nateglinide] (M) -6.79588, MRGPRX4+RAMP2 0.5pg 1:0.5, Supplementary Figure 5e, read-out: IP1 accumulation (normalized)): 8.46%
activation at […] (log [nateglinide] (M) -6.79588, MRGPRX4+RAMP2 0.75pg 1:0.75, Supplementary Figure 5e, read-out: IP1 accumulation (normalized)): 6.53%
activation at […] (log [nateglinide] (M) -6.79588, MRGPRX4+RAMP2 1pg 1:1, Supplementary Figure 5e, 5g, read-out: IP1 accumulation (normalized)): 3.5%
activation at 0.032 µM (log [nateglinide] (M) -7.49485, MRGPRX4+RAMP2 0.5pg 1:0.5, Supplementary Figure 5e, read-out: IP1 accumulation (normalized)): 8.31%
activation at 0.032 µM (log [nateglinide] (M) -7.49485, MRGPRX4+RAMP2 0.75pg 1:0.75, Supplementary Figure 5e, read-out: IP1 accumulation (normalized)): 6.16%
activation at 0.032 µM (log [nateglinide] (M) -7.49485, MRGPRX4+RAMP2 1pg 1:1, Supplementary Figure 5e, 5g, read-out: IP1 accumulation (normalized)): 3.54%
activation at 100 µM (ratio MRGPRX4:RAMP2 1:0.25, log [Nateglinide] (M) -4, Fig S3b, read-out: IP1 accumulation): 98.8%
activation at 20 µM (ratio MRGPRX4:RAMP2 1:0.25, log [Nateglinide] (M) -4.69897, Fig S3b, read-out: IP1 accumulation): 58.9%
activation at 4 µM (ratio MRGPRX4:RAMP2 1:0.25, log [Nateglinide] (M) -5.39794, Fig S3b, read-out: IP1 accumulation): 38%
activation at 0.8 µM (ratio MRGPRX4:RAMP2 1:0.25, log [Nateglinide] (M) -6.09691, Fig S3b, read-out: IP1 accumulation): 25.5%
activation at […] (ratio MRGPRX4:RAMP2 1:0.25, log [Nateglinide] (M) -6.79588, Fig S3b, read-out: IP1 accumulation): 22.6%
activation at 0.032 µM (ratio MRGPRX4:RAMP2 1:0.25, log [Nateglinide] (M) -7.49485, Fig S3b, read-out: IP1 accumulation): 20.5%
activation at 100 µM (ratio MRGPRX4:RAMP2 1:0.5, log [Nateglinide] (M) -4, Fig S3b, read-out: IP1 accumulation): 67.8%
activation at 20 µM (ratio MRGPRX4:RAMP2 1:0.5, log [Nateglinide] (M) -4.69897, Fig S3b, read-out: IP1 accumulation): 62.1%
activation at 4 µM (ratio MRGPRX4:RAMP2 1:0.5, log [Nateglinide] (M) -5.39794, Fig S3b, read-out: IP1 accumulation): 36.6%
activation at 0.8 µM (ratio MRGPRX4:RAMP2 1:0.5, log [Nateglinide] (M) -6.09691, Fig S3b, read-out: IP1 accumulation): 20.3%
activation at […] (ratio MRGPRX4:RAMP2 1:0.5, log [Nateglinide] (M) -6.79588, Fig S3b, read-out: IP1 accumulation): 15.7%
activation at 0.032 µM (ratio MRGPRX4:RAMP2 1:0.5, log [Nateglinide] (M) -7.49485, Fig S3b, read-out: IP1 accumulation): 15.3%
activation at 100 µM (ratio MRGPRX4:RAMP2 1:1, log [Nateglinide] (M) -4, Fig S3b, read-out: IP1 accumulation): 40.5%
activation at 20 µM (ratio MRGPRX4:RAMP2 1:1, log [Nateglinide] (M) -4.69897, Fig S3b, read-out: IP1 accumulation): 43.2%
activation at 4 µM (ratio MRGPRX4:RAMP2 1:1, log [Nateglinide] (M) -5.39794, Fig S3b, read-out: IP1 accumulation): 21.9%
activation at 0.8 µM (ratio MRGPRX4:RAMP2 1:1, log [Nateglinide] (M) -6.09691, Fig S3b, read-out: IP1 accumulation): 14.1%
activation at […] (ratio MRGPRX4:RAMP2 1:1, log [Nateglinide] (M) -6.79588, Fig S3b, read-out: IP1 accumulation): 11.3%
activation at 0.032 µM (ratio MRGPRX4:RAMP2 1:1, log [Nateglinide] (M) -7.49485, Fig S3b, read-out: IP1 accumulation): 11.1%
activation at 100 µM (ratio MRGPRX4:RAMP2 1:2, log [Nateglinide] (M) -4, Fig S3b, read-out: IP1 accumulation): 28%
activation at 20 µM (ratio MRGPRX4:RAMP2 1:2, log [Nateglinide] (M) -4.69897, Fig S3b, read-out: IP1 accumulation): 15.2%
activation at 4 µM (ratio MRGPRX4:RAMP2 1:2, log [Nateglinide] (M) -5.39794, Fig S3b, read-out: IP1 accumulation): 6.45%
activation at 0.8 µM (ratio MRGPRX4:RAMP2 1:2, log [Nateglinide] (M) -6.09691, Fig S3b, read-out: IP1 accumulation): 4.89%
activation at […] (ratio MRGPRX4:RAMP2 1:2, log [Nateglinide] (M) -6.79588, Fig S3b, read-out: IP1 accumulation): 3.86%
activation at 0.032 µM (ratio MRGPRX4:RAMP2 1:2, log [Nateglinide] (M) -7.49485, Fig S3b, read-out: IP1 accumulation): 3.91%
Emax (Figure 4a bottom, DNA ratio MRGPRX4:RAMP2 1:1, MRGPRX4 alone = 100, read-out: efficacy): 35.1%
EC50 (Figure 4a top, DNA ratio MRGPRX4:RAMP2 1:0.25, individual replicates, read-out: potency (converted)): 9.57 µM and 9.23 µM (2×)
EC50 (Figure 4a top, DNA ratio MRGPRX4:RAMP2 1:0.5, individual replicates, read-out: potency (converted)): 15.1 µM and 11.3 µM and 13.1 µM
EC50 (Figure 4a top, DNA ratio MRGPRX4:RAMP2 1:0.75, individual replicates, read-out: potency (converted)): 15.4 µM and 13.9 µM and 10.4 µM
EC50 (Figure 4a top, DNA ratio MRGPRX4:RAMP2 1:1, individual replicates, read-out: potency (converted)): 39.9 µM and 19.4 µM and 24.3 µM
response to agonist, X4:ramp2.I:0.25 (Figure 4c-f, agonist 100µM, X4:ramp2 1:0.25, MRGPRX4 = 100): 71.8475 and 74.3589
response to agonist, X4:ramp2.I:0.5 (Figure 4c-f, agonist 100µM, X4:ramp2 1:0.5, MRGPRX4 = 100): 61.7207 and 60.1764
response to agonist, X4:ramp2.I:1 (Figure 4c-f, agonist 100µM, X4:ramp2 1:1, MRGPRX4 = 100): 42.7283 and 40.01
response to agonist, X4:ramp2.I:2 (Figure 4c-f, agonist 100µM, X4:ramp2 1:2, MRGPRX4 = 100): 16.754 and 20.2407
IP1 Basal [1]: 16.83
IP1 span (Emax minus basal) [1]: 84.5%
EC50 (MRGPRX4 + RAMP2 0.25 pg (Fig. S3), normalized per agonist, read-out: IP1 EC50): 11.8 µM
Emax (MRGPRX4 + RAMP2 0.25 pg (Fig. S3), normalized per agonist, read-out: IP1 Emax): 101%
IP1 Basal [2]: 13.85
IP1 span (Emax minus basal) [2]: 55.7%
Emax (MRGPRX4 + RAMP2 0.5 pg (Fig. S3), normalized per agonist, read-out: IP1 Emax): 69.5%
EC50 (MRGPRX4 + RAMP2 0.5 pg (Fig. S3), normalized per agonist, read-out: IP1 logEC50 (converted)): 6.68 µM
IP1 Basal [3]: 8.724
IP1 span (Emax minus basal) [3]: 37.8%
Emax (MRGPRX4 + RAMP2 1 pg (Fig. S3), normalized per agonist, read-out: IP1 Emax): 46.5%
EC50 (MRGPRX4 + RAMP2 1 pg (Fig. S3), normalized per agonist, read-out: IP1 logEC50 (converted)): 9.29 µM
IP1 Basal [4]: 3.623
IP1 span (Emax minus basal) [4]: 25.2%
EC50 (MRGPRX4 + RAMP2 2 pg (Fig. S3), normalized per agonist, read-out: IP1 EC50): 26.6 µM
Emax (MRGPRX4 + RAMP2 2 pg (Fig. S3), normalized per agonist, read-out: IP1 Emax): 28.8%
IP1 Basal [5]: 7.610
IP1 span (Emax minus basal) [5]: 68%
EC50 (Tet-On MRGPRX4:RAMP2 Ratio 1:0.5 (Fig. S5E), read-out: IP1 EC50): 8.76 µM
Emax (Tet-On MRGPRX4:RAMP2 Ratio 1:0.5 (Fig. S5E), read-out: IP1 Emax): 75.6%
IP1 Basal [6]: 4.862
IP1 span (Emax minus basal) [6]: 63.1%
EC50 (Tet-On MRGPRX4:RAMP2 Ratio 1:0.75 (Fig. S5E), read-out: IP1 EC50): 10.5 µM
Emax (Tet-On MRGPRX4:RAMP2 Ratio 1:0.75 (Fig. S5E), read-out: IP1 Emax): 67.9%
EC50 (Tet-On MRGPRX4:RAMP2 Ratio 1:0.75 (Fig. S5E), read-out: IP1 logEC50 (converted)): 10.5 µM
IP1 Basal (Tet-On MRGPRX4:RAMP2 Ratio 1:1 (Fig. S5E)): 3.554
